Reference: patent US9708323B2, “Tricyclic compounds as alpha-7 nicotinic acetylcholine receptor ligands” (BRISTOL-MYERS SQUIBB COMPANY, priority 2014, dated 2017)

The compounds below were run against T1, α-7 nicotinic ACh receptor ion channel expressed in HEK 293 cells (Rattus norvegicus, UniProt Q05941) (assay: Ca2+-sensitive, fluorescence-based assay for α-7 nicotinic acetylcholine receptor channel function in mammalian cells (FLIPR)). Details: Table 1, agonist Ca2+ flux, read-out: FLIPR α7 (EC50).
T1 construct: expressed in transfected cells
T1 sequence (Q05941 23-502): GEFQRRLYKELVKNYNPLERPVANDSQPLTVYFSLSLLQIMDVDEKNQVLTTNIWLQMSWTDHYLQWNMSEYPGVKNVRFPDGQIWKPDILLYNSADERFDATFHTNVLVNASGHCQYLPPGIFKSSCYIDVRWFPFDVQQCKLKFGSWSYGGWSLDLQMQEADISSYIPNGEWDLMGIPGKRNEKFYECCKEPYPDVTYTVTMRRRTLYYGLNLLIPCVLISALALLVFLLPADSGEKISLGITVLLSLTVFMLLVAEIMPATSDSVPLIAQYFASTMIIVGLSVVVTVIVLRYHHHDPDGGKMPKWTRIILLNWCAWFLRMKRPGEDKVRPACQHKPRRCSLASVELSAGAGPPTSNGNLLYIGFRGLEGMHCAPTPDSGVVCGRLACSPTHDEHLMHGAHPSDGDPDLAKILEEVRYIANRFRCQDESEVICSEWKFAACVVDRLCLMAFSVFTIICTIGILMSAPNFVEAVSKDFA
Format: cell-based
Protocol: II) A Ca^2+-Sensitive, Fluorescence-Based Assay α-7 for Nicotinic Acetylcholine Receptor Channel Function in Mammalian Cells (“FLIPR”). Summary:
Lead compounds are evaluated for agonist activity at α-7, α3β4, α4αβ2, and α1β1δ1ε sub-types of nicotinic ACh receptor ion channels expressed in mammalian HEK 293 cells. Agonist potency and efficacy values are determined from kinetic fluorescence Ca^2+ influx measurements made using a 384 well FLIPR (Fluorescence Image Plate Reader). The utility of fluorescent indicators for measuring changes in intracellular divalent cation concentrations, particularly Ca^2+, for drug discovery endeavors is well documented (Rudiger, R., et al., Nature Reviews, 2003, 4:579-586; Gonzalez J. E., et al., Receptors and Channels, 2002, 8:283-295). In this assay, channel expressing HEK cell lines seeded in 384 well assay plates are loaded with a membrane permeant fluorescent Ca^2+ indicator dye, whose 510 nm green emission signal increases in response to elevation of intracellular Ca^2+ concentration. The basal fluorescence from the cells is monitored in real time, followed by the acute addition of test compounds. If the compound is an agonist at any of the non-selective cation channels, the latter open and allow the movement of extracellular Ca^2+ ions into the cell cytoplasm, where they bind to the Ca^2+ indicator dye, and produce an increase in fluorescence output signal, which is detected by a cooled CCD imaging camera.
Reagents: The acetomethoxy (AM) ester of the Ca^2+ indicator dye Fluo-4 was obtained from InVitrogen, (Carlsbad, Calif.). Acetylcholine and all buffer constituents were purchased from Sigma Chemical Company, St. Louis, Mo. G418 and Minimal Essential Medium were purchased from InVitrogen Life Technologies, Carlsbad, Calif. Fetal bovine serum was purchased from (InVitrogen, Carlsbad, Calif.).
HEK-293 cells were grown in Minimal Essential Medium containing 10% (v/v) fetal bovine serum at 37° C. in a 5% CO2 incubator. HEK-293 cells stably expressing the ion channels were grown in the same medium with the addition of 500 μg/ml G418.
HEK-293 cells expressing the ion channels of interest were plated in 384 well, black-walled, clear-bottomed, poly-D-lysine coated plates at a density of ˜20,000 cells/well in 20 μl of Minimal Essential Medium containing 10% (v/v) fetal bovine serum and incubated for 2 days at 29° C. in a 5% CO2 incubator. Prior to assay, cells were loaded with the Fluo-4 AM ester. Cell loading was accomplished by removing the culture medium and replacing it with 30 μl/well of the AM ester of the dye (5 μM) mixed with Hanks Balanced Salt Solution (#14175-095) containing 20 mM HEPES, 2.5 mM probenecid, 0.5 mM CaCl2, 1 mM MgCl2 and 10 μM atropine. Dye loading was allowed to proceed for 90 minutes at room temperature at which time the dye loading solution was removed and replaced with 40 μl/well of Hanks buffer. Cells loaded with dye were loaded onto a FLIPR384 (Molecular Devices, Sunnyvale, Calif.). Fluo-4 dye was excited using the 488 nm line of an argon laser. Emission was filtered using a 540+/−30 nm bandpass filter. For evaluation of the effects of test compounds using the Ca^2+ flux assay, compounds to be tested were provided in assay ready plates. For nicotinic receptor ion channel expressing cells, the assay was initiated by the addition of 20 μl/well of Hanks buffer containing test compounds. For all assays, data were collected at 1 Hz for 10 seconds (baseline), at which time the compound containing stimulus buffers are added, and further measurements collected at 0.33 Hz for 3 min.
The statistical robustness of the nicotinic receptor Ca^2+ flux assays is determined from blanks and totals wells. The totals wells define maximal channel activation for each compound test plate (Maximum efficacious dose of acetylcholine), and the blanks wells which contain matched DMSO only, define zero channel activation. […]
With O=C(c1cc2cccc(Cl)c2s1)N1CC2CN3CCC2C1C3 (stereo not shown) [Example 1, (7-chlorobenzo[b]thiophen-2-yl)(hexahydro-3,6-methanopyrrolo[2,3-c]pyridin-1(2H)-yl)methanone] the EC50 was 1.7 µM. Work on O=C(c1n[nH]c2ccccc12)N1CC2CN3CCC2C1C3 (stereo not shown) [Example 2, (hexahydro-3,6-methanopyrrolo[2,3-c]pyridin-1(2H)-yl)(1H-indazol-3-yl)methanone] yielded an EC50 of 0.25 µM. In the case of O=C(c1ccccc1)N1CC2CN3CCC2C1C3 (stereo not shown) [Example 3, (hexahydro-3,6-methanopyrrolo[2,3-c]pyridin-1(2H)-yl)(phenyl)methanone], the EC50 is reported as over 100 µM. Work on O=C(c1ccc(Br)o1)N1CC2CN3CCC2C1C3 (stereo not shown) [Example 7] yielded an EC50 of over 100 µM. O=C(c1sccc1Cl)N1CC2CN3CCC2C1C3 (stereo not shown) [Example 26] showed an EC50 of over 100 µM. In the case of O=C(c1cccc(Cl)n1)N1CC2CN3CCC2C1C3 (stereo not shown) [Example 35], the EC50 is reported as over 100 µM. With O=C(c1cc(Cl)ccn1)N1CC2CN3CCC2C1C3 (stereo not shown) [Example 37] the EC50 was over 100 µM. Work on O=C(c1cc(Br)c(Br)s1)N1CC2CN3CCC2C1C3 (stereo not shown) [Example 51] yielded an EC50 of over 100 µM. For O=C(c1sc2cc(F)ccc2c1Cl)N1CC2CN3CCC2C1C3 (stereo not shown) [Example 52], the EC50 was over 100 µM. Compound Cn1nc2ccccc2c1C(=O)N1CC2CN3CCC2C1C3 (stereo not shown) [Example 54] has an EC50 of over 100 µM. O=C(c1c[nH]c2ncccc12)N1CC2CN3CCC2C1C3 (stereo not shown) [Example 55] was tested, and the EC50 was over 100 µM. For O=C(c1cc(Br)no1)N1CC2CN3CCC2C1C3 (stereo not shown) [Example 56], the EC50 was over 100 µM. For O=C(c1cc(Br)c(Br)o1)N1CC2CN3CCC2C1C3 (stereo not shown) [Example 57], the EC50 was over 100 µM. For CC(C)c1cc(C(=O)N2CC3CN4CCC3C2C4)on1 (stereo not shown) [Example 58], the EC50 was over 100 µM. Compound O=C(c1cc(Br)cs1)N1CC2CN3CCC2C1C3 (stereo not shown) [Example 59] has an EC50 of over 100 µM. COc1cc(Br)cc2cc(C(=O)N3CC4CN5CCC4C3C5)oc12 (stereo not shown) [Example 60] gave an EC50 of over 100 µM. O=C(c1cc(-c2ccccc2)no1)N1CC2CN3CCC2C1C3 (stereo not shown) [Example 62] gave an EC50 of over 100 µM. For Cc1cc(C(=O)N2CC3CN4CCC3C2C4)on1 (stereo not shown) [Example 64], the EC50 was over 100 µM. Cc1c(Br)csc1C(=O)N1CC2CN3CCC2C1C3 (stereo not shown) [Example 65] showed an EC50 of over 100 µM. With O=C(c1cc(-c2ccccc2)cs1)N1CC2CN3CCC2C1C3 (stereo not shown) [Example 66] the EC50 was over 100 µM. O=C(c1sc2ccccc2c1Cl)N1CC2CN3CCC2C1C3 (stereo not shown) [Example 67] gave an EC50 of over 100 µM. Compound Cc1ccc2c(Cl)c(C(=O)N3CC4CN5CCC4C3C5)sc2c1 (stereo not shown) [Example 68] has an EC50 of over 100 µM. Work on O=C(c1cc(-c2ccc(Br)cc2)cs1)N1CC2CN3CCC2C1C3 (stereo not shown) [Example 69] yielded an EC50 of over 100 µM. With Cc1cc(C(=O)N2CC3CN4CCC3C2C4)oc1C (stereo not shown) [Example 70] the EC50 was over 100 µM. O=C(c1cc2ccc(Cl)cc2s1)N1CC2CN3CCC2C1C3 (stereo not shown) [Example 71] showed an EC50 of over 100 µM. For O=C(c1cc2c(C(F)(F)F)cccc2s1)N1CC2CN3CCC2C1C3 (stereo not shown) [Example 72], the EC50 was over 100 µM. In the case of O=C(c1cc2nccnc2s1)N1CC2CN3CCC2C1C3 (stereo not shown) [Example 75], the EC50 is reported as over 100 µM. O=C(c1snc(Cl)c1Cl)N1CC2CN3CCC2C1C3 (stereo not shown) [Example 76] was tested, and the EC50 was over 100 µM. For O=C(c1ccns1)N1CC2CN3CCC2C1C3 (stereo not shown) [Example 78], the EC50 was over 100 µM. O=C(c1sc2cccc(Cl)c2c1Cl)N1CC2CN3CCC2C1C3 (stereo not shown) [Example 79] showed an EC50 of over 100 µM. O=C(c1c[nH]c2ncc(Br)cc12)N1CC2CN3CCC2C1C3 (stereo not shown) [Example 80] was tested, and the EC50 was 38 µM. O=C(c1noc2ccccc12)N1CC2CN3CCC2C1C3 (stereo not shown) [Example 81] gave an EC50 of 8 µM. O=C(c1onc2ccccc12)N1CC2CN3CCC2C1C3 (stereo not shown) [Example 82] showed an EC50 of over 100 µM. With CSc1sc(C(=O)N2CC3CN4CCC3C2C4)c2c1C=CCC2 (stereo not shown) [Example 83] the EC50 was over 100 µM. For O=C(c1cc(-c2ccc(Cl)cc2)cs1)N1CC2CN3CCC2C1C3 (stereo not shown) [Example 84], the EC50 was over 100 µM. In the case of O=C(c1sc2cccc(F)c2c1Cl)N1CC2CN3CCC2C1C3 (stereo not shown) [Example 85], the EC50 is reported as over 100 µM. Cc1c(C(=O)N2CC3CN4CCC3C2C4)sc2ccc(Cl)cc12 (stereo not shown) [Example 86] gave an EC50 of over 100 µM.
